Assay results reported in US10757941B2, “Microbiocidal oxadiazole derivatives” (SYNGENTA PARTICIPATIONS AG, priority 2016, dated 2020).

Tests used:
Uromyces viciae-fabael = assay: Fungicidal activity against Uromyces viciae-fabae / field bean / leaf disc preventative (faba-bean rust); type: in vivo; details: foliar, 288 h, 100 ppm in the applied formulation, field bean leaf discs, preventative (inoculated two hours after application), assessed 12 days after application, compared to untreated, read-out: disease control
Experimental: Leaf disks or leaf segments of various plant species are cut from plants grown in a greenhouse. The cut leaf disks or segments are placed in multiwell plates (24-well format) onto water agar. The leaf disks are sprayed with a test solution before (preventative) or after (curative) inoculation. Compounds to be tested are prepared as DMSO solutions (max. 10 mg/ml) which are diluted to the appropriate concentration with 0.025% Tween20 just before spraying. The inoculated leaf disks or segments are incubated under defined conditions (temperature, relative humidity, light, etc.) according to the respective test system. A single evaluation of disease level is carried out 3 to 14 days after inoculation, depending on the pathosystem. Percent disease control relative to the untreated check leaf disks or segments is then calculated. Example 5: Fungicidal Activity Against Uromyces viciae-fabael Field Bean/Leaf Disc Preventative (Faba-Bean Rust) Field bean leaf discs are placed on water agar in multiwell plates (96-well format) and 10 μl of the formulated test compound diluted in acetone and a spreader pipetted onto the leaf disc. Two hours after application leaf discs are inoculated by spraying a spore suspension on the lower leaf surface. The leaf discs are incubated in a climate cabinet at 22° C. with 18 hour day and 70% relative humidity. The activity of a compound is assessed as percent disease control compared to untreated when an appropriate level of disease damage appears in untreated check leaf disks (12 days after application). The following compounds at 100 ppm in the applied formulation give at least 80% disease control in this test when compared to untreated control leaf discs under the same conditions, which show extensive disease development.

Phakopsora pachyrhizi = assay: Fungicidal activity against Phakopsora pachyrhizi / soybean / leaf disc preventative (Asian soybean rust); type: in vivo; details: foliar, 200 ppm in the applied formulation, soybean leaf disks, preventative (inoculated one day after application), assessed 12 to 14 days after application, compared to untreated, read-out: disease control
Experimental: Leaf disks or leaf segments of various plant species are cut from plants grown in a greenhouse. The cut leaf disks or segments are placed in multiwell plates (24-well format) onto water agar. The leaf disks are sprayed with a test solution before (preventative) or after (curative) inoculation. Compounds to be tested are prepared as DMSO solutions (max. 10 mg/ml) which are diluted to the appropriate concentration with 0.025% Tween20 just before spraying. The inoculated leaf disks or segments are incubated under defined conditions (temperature, relative humidity, light, etc.) according to the respective test system. A single evaluation of disease level is carried out 3 to 14 days after inoculation, depending on the pathosystem. Percent disease control relative to the untreated check leaf disks or segments is then calculated. Example 3: Fungicidal Activity Against Phakopsora pachyrhizi/Soybean/Leaf Disc Preventative (Asian Soybean Rust) Soybean leaf disks are placed on water agar in multiwell plates (24-well format) and sprayed with the formulated test compound diluted in water. One day after application leaf discs are inoculated by spraying a spore suspension on the lower leaf surface. After an incubation period in a climate cabinet of 24-36 hours in darkness at 20° C. and 75% rh leaf disc are kept at 20° C. with 12 h light/day and 75% rh. The activity of a compound is assessed as percent disease control compared to untreated when an appropriate level of disease damage appears in untreated check leaf disks (12 to 14 days after application). The following compounds at 200 ppm in the applied formulation give at least 80% disease control in this test when compared to untreated control leaf disks under the same conditions, which show extensive disease development.

[1] = test system: Puccinia recondita f. Sp. Tritici; assay: Fungicidal activity against Puccinia recondita f. sp. tritici / wheat / leaf disc preventative (brown rust); type: in vivo; details: foliar, 200 ppm in the applied formulation, wheat leaf segments cv. Kanzler, preventative (inoculated 1 day after application), assessed 7 to 9 days after application, compared to untreated, read-out: disease control
Experimental: Leaf disks or leaf segments of various plant species are cut from plants grown in a greenhouse. The cut leaf disks or segments are placed in multiwell plates (24-well format) onto water agar. The leaf disks are sprayed with a test solution before (preventative) or after (curative) inoculation. Compounds to be tested are prepared as DMSO solutions (max. 10 mg/ml) which are diluted to the appropriate concentration with 0.025% Tween20 just before spraying. The inoculated leaf disks or segments are incubated under defined conditions (temperature, relative humidity, light, etc.) according to the respective test system. A single evaluation of disease level is carried out 3 to 14 days after inoculation, depending on the pathosystem. Percent disease control relative to the untreated check leaf disks or segments is then calculated. Example 1: Fungicidal Activity Against Puccinia recondita f. Sp. Tritici/Wheat/Leaf Disc Preventative (Brown Rust) Wheat leaf segments cv. Kanzler were placed on agar in multiwell plates (24-well format) and sprayed with the formulated test compound diluted in water. The leaf disks were inoculated with a spore suspension of the fungus 1 day after application. The inoculated leaf segments were incubated at 19° C. and 75% relative humidity (rh) under a light regime of 12 hours light/12 hours darkness in a climate cabinet and the activity of a compound was assessed as percent disease control compared to untreated when an appropriate level of disease damage appears in untreated check leaf segments (7 to 9 days after application). The following compounds at 200 ppm in the applied formulation give at least 80% disease control in this test when compared to untreated control leaf disks under the same conditions, which show extensive disease development.

[2] = test system: Glomerella lagenarium (Colletotrichum lagenarium); assay: Fungicidal activity against Glomerella lagenarium (Colletotrichum lagenarium) liquid culture / cucumber / preventative (anthracnose); type: cell-based; details: Colletotrichum orbiculare; 20 ppm in the applied formulation; liquid culture in PDB, 24° C.; inhibition of growth measured photometrically 3 to 4 days after application; compared to untreated; read-out: disease control
Experimental: Mycelia fragments or conidia suspensions of a fungus prepared either freshly from liquid cultures of the fungus or from cryogenic storage, are directly mixed into nutrient broth. DMSO solutions of the test compound (max. 10 mg/ml) are diluted with 0.025% Tween20 by a factor of 50 and 10 μl of this solution is pipetted into a microtiter plate (96-well format). The nutrient broth containing the fungal spores/mycelia fragments is then added to give an end concentration of the tested compound. The test plates are incubated in the dark at 24° C. and 96% relative humidity. The inhibition of fungal growth is determined photometrically after 2 to 7 days, depending on the pathosystem, and percent antifungal activity relative to the untreated check is calculated. Example 4: Fungicidal Activity Against Glomerella lagenarium (Colletotrichum lagenarium) Liquid Culture/Cucumber/Preventative (Anthracnose) Conidia of the fungus from cryogenic storage are directly mixed into nutrient broth (PDB—potato dextrose broth). After placing a (DMSO) solution of test compound into a microtiter plate (96-well format), the nutrient broth containing the fungal spores is added. The test plates are incubated at 24° C. and the inhibition of growth is measured photometrically 3 to 4 days after application. The following compounds at 20 ppm in the applied formulation give at least 80% disease control in this test when compared to untreated control under the same conditions, which show extensive disease development.

[3] = test system: Puccinia recondita f. Sp. Tritici; assay: Fungicidal activity against Puccinia recondita f. sp. tritici / wheat / leaf disc curative (brown rust); type: in vivo; details: foliar, 200 ppm in the applied formulation, wheat leaf segments cv. Kanzler, curative (applied 1 day after inoculation), assessed 6 to 8 days after application, compared to untreated, read-out: disease control
Experimental: Leaf disks or leaf segments of various plant species are cut from plants grown in a greenhouse. The cut leaf disks or segments are placed in multiwell plates (24-well format) onto water agar. The leaf disks are sprayed with a test solution before (preventative) or after (curative) inoculation. Compounds to be tested are prepared as DMSO solutions (max. 10 mg/ml) which are diluted to the appropriate concentration with 0.025% Tween20 just before spraying. The inoculated leaf disks or segments are incubated under defined conditions (temperature, relative humidity, light, etc.) according to the respective test system. A single evaluation of disease level is carried out 3 to 14 days after inoculation, depending on the pathosystem. Percent disease control relative to the untreated check leaf disks or segments is then calculated. Example 2: Fungicidal Activity Against Puccinia recondita f. Sp. Tritici/Wheat/Leaf Disc Curative (Brown Rust) Wheat leaf segments cv. Kanzler are placed on agar in multiwell plates (24-well format). The leaf segments are then inoculated with a spore suspension of the fungus. Plates were stored in darkness at 19° C. and 75% relative humidity. The formulated test compound diluted in water was applied 1 day after inoculation. The leaf segments were incubated at 19° C. and 75% relative humidity under a light regime of 12 hours light/12 hours darkness in a climate cabinet and the activity of a compound was assessed as percent disease control compared to untreated when an appropriate level of disease damage appears in untreated check leaf segments (6 to 8 days after application). The following compounds at 200 ppm in the applied formulation give at least 80% disease control in this test when compared to untreated control leaf disks under the same conditions, which show extensive disease development.

O=C(NCC1COCCO1)c1ccc(-c2noc(C(F)(F)F)n2)c(F)c1 (centres unmarked) [Compound 1.12, N-(1,4-dioxan-2-ylmethyl)-3-fluoro-4-[5-(trifluoromethyl)-1,2,4-oxadiazol-3-yl]benzamide]
≥ 80%: pest or weed control at 100 ppm (Uromyces viciae-fabael) | pest or weed control at 200 ppm (Phakopsora pachyrhizi) | pest or weed control at 200 ppm [1] | inhibition of growth at 20 ppm [2] | pest or weed control at 200 ppm [3]

O=C(NCC1CCOC1)c1ccc(-c2noc(C(F)(F)F)n2)c(F)c1 (centres unmarked) [Compound 1.14, 3-fluoro-N-(tetrahydrofuran-3-ylmethyl)-4-[5-(trifluoromethyl)-1,2,4-oxadiazol-3-yl]benzamide]
≥ 80%: pest or weed control at 100 ppm (Uromyces viciae-fabael) | pest or weed control at 200 ppm (Phakopsora pachyrhizi) | pest or weed control at 200 ppm [1] | inhibition of growth at 20 ppm [2] | pest or weed control at 200 ppm [3]

COCCN(Cc1ccccc1)C(=O)c1ccc(-c2noc(C(F)(F)F)n2)c(F)c1 [Compound 1.16, N-benzyl-3-fluoro-N-(2-methoxyethyl)-4-[5-(trifluoromethyl)-1,2,4-oxadiazol-3-yl]benzamide]
≥ 80%: pest or weed control at 100 ppm (Uromyces viciae-fabael) | pest or weed control at 200 ppm (Phakopsora pachyrhizi) | pest or weed control at 200 ppm [1] | inhibition of growth at 20 ppm [2] | pest or weed control at 200 ppm [3]

O=C(NCC1CC1)c1ccc(-c2noc(C(F)(F)F)n2)c(F)c1 [Compound 1.20, N-(cyclo-propylmethyl)-3-fluoro-4-[5-(trifluoromethyl)-1,2,4-oxadiazol-3-yl]benzamide]
≥ 80%: pest or weed control at 200 ppm (Phakopsora pachyrhizi) | pest or weed control at 200 ppm [1] | inhibition of growth at 20 ppm [2] | pest or weed control at 200 ppm [3]

CC(NC(=O)c1ccc(-c2noc(C(F)(F)F)n2)c(F)c1)C1CC1 (centres unmarked) [Compound 1.25, N-(1-cyclopropylethyl)-3-fluoro-4-[5-(trifluoromethyl)-1,2,4-oxadiazol-3-yl]benzamide]
≥ 80%: pest or weed control at 100 ppm (Uromyces viciae-fabael) | pest or weed control at 200 ppm (Phakopsora pachyrhizi) | pest or weed control at 200 ppm [1] | inhibition of growth at 20 ppm [2] | pest or weed control at 200 ppm [3]

O=C(NC1(C2CC2)CC1)c1ccc(-c2noc(C(F)(F)F)n2)c(F)c1 [Compound 1.27, N-(1-cyclopropyl-cyclopropyl)-3-fluoro-4-[5-(trifluoromethyl)-1,2,4-oxadiazol-3-yl]benzamide]
≥ 80%: pest or weed control at 100 ppm (Uromyces viciae-fabael) | pest or weed control at 200 ppm (Phakopsora pachyrhizi) | pest or weed control at 200 ppm [1] | inhibition of growth at 20 ppm [2] | pest or weed control at 200 ppm [3]

Cc1ccc(CNC(=O)c2ccc(-c3noc(C(F)(F)F)n3)c(F)c2)o1 [Compound 1.28, 3-fluoro-N-[(5-methyl-2-furyl)methyl]-4-[5-(trifluoromethyl)-1,2,4-oxadiazol-3-yl]benzamide]
≥ 80%: pest or weed control at 100 ppm (Uromyces viciae-fabael) | pest or weed control at 200 ppm (Phakopsora pachyrhizi) | pest or weed control at 200 ppm [1] | inhibition of growth at 20 ppm [2] | pest or weed control at 200 ppm [3]

O=C(NCc1ccco1)c1ccc(-c2noc(C(F)(F)F)n2)c(F)c1 [Compound 1.31, 3-fluoro-N-(2-furylmethyl)-4-[5-(trifluoromethyl)-1,2,4-oxadiazol-3-yl]benzamide]
≥ 80%: pest or weed control at 100 ppm (Uromyces viciae-fabael) | pest or weed control at 200 ppm (Phakopsora pachyrhizi) | pest or weed control at 200 ppm [1] | inhibition of growth at 20 ppm [2] | pest or weed control at 200 ppm [3]

O=C(NCCc1cccs1)c1ccc(-c2noc(C(F)(F)F)n2)c(F)c1 [Compound 1.35, 3-fluoro-N-[2-(2-thienyl)ethyl]-4-[5-(trifluoromethyl)-1,2,4-oxadiazol-3-yl]benzamide]
≥ 80%: pest or weed control at 100 ppm (Uromyces viciae-fabael) | pest or weed control at 200 ppm (Phakopsora pachyrhizi) | pest or weed control at 200 ppm [1] | inhibition of growth at 20 ppm [2] | pest or weed control at 200 ppm [3]

COC(CN(C)C(=O)c1ccc(-c2noc(C(F)(F)F)n2)c(F)c1)OC [Compound 1.36, N-(2,2-dimethoxyethyl)-3-fluoro-N-methyl-4-[5-(trifluoromethyl)-1,2,4-oxadiazol-3-yl]benzamide]
≥ 80%: pest or weed control at 100 ppm (Uromyces viciae-fabael) | pest or weed control at 200 ppm (Phakopsora pachyrhizi) | pest or weed control at 200 ppm [1] | inhibition of growth at 20 ppm [2] | pest or weed control at 200 ppm [3]

CCCN(CC1CC1)C(=O)c1ccc(-c2noc(C(F)(F)F)n2)c(F)c1 [Compound 1.41, N-(cyclopropyl-methyl)-3-fluoro-N-propyl-4-[5-(trifluoromethyl)-1,2,4-oxadiazol-3-yl]benzamide]
≥ 80%: pest or weed control at 100 ppm (Uromyces viciae-fabael) | pest or weed control at 200 ppm (Phakopsora pachyrhizi) | inhibition of growth at 20 ppm [2] | pest or weed control at 200 ppm [3]
